Results published in US20020132223A1, “Methods for modulating activity of the FXR nuclear receptor” (City of Hope, priority 1999, published 2002).
Entries after “also recorded” stand apart in the source; their conditions may differ.

What was measured:
[1] = tested on: FXR derived from human, rat and mouse; experiment: Antagonism of CDCA activation of FXR in CV-1 cells; type: cell-based; settings: 50 μM CDCA, 20 μM azole compound
Method: The FXR receptor activation assays disclosed herein may be used not only to test compounds for activation of FXR as above, but also for compounds which antagonize FXR activation. […] See Example 7.
CV-1 cells were grown in DMEM supplemented with 10% resin-charcoal stripped fetal bovine serum, 50 U/ml penicillin G and 50 μg/ml streptomycin sulfate at 37° C. in 5% CO2. Cells were plated to 50-80% confluence one day prior to transfection using phenol red-free DMEM-FBS. The cells were transfected by lipofection using N-[1-(2,3-dioleoyloxy)propyl]-N,N,N-ammonium methyl sulfate according to manufacture's instructions (Boehringer Mannheim). The cells were transfected with a CMV expression vector containing the FXR indicated in FIG. 16 (none, −; human, hFXR; rat, rFXR; or mouse, mFXR) and RXR. The luciferase reporter construct contained the herpesvirus thymidine kinase promoter (−105/+51) linked to six copies of the response element hsp27 EcRE. […] After exposure to the agonist and candidate antagonist compounds, cells were harvested and assayed for luciferase and β-galactosidase activity. […] Therefore, clotrimazole, Compound A and Compound B were selected from the screen as FXR receptor antagonists.

FXR-RXR heterodimers [2] = biological target: T1, FXR-RXR heterodimers (Rattus norvegicus, UniProt Q62735); experiment: Transient transfection activation assay in CV-1 cells, EcRE×6 reporter, FXR + RXR; type: cell-based
T1 sequence (Q62735 1-469): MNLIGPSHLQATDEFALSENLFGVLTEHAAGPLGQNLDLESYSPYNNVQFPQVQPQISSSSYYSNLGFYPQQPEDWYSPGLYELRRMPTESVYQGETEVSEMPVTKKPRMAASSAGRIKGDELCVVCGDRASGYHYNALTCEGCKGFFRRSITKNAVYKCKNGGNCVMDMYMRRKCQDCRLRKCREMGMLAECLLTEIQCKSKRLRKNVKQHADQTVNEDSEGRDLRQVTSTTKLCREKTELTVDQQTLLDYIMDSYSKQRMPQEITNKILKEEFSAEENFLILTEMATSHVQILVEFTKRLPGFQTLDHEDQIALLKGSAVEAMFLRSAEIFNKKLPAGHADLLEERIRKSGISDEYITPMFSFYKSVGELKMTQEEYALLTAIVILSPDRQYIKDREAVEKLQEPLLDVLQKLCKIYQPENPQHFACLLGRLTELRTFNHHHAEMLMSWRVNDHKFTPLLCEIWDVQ
T1 sequence (P19793 1-462 partner): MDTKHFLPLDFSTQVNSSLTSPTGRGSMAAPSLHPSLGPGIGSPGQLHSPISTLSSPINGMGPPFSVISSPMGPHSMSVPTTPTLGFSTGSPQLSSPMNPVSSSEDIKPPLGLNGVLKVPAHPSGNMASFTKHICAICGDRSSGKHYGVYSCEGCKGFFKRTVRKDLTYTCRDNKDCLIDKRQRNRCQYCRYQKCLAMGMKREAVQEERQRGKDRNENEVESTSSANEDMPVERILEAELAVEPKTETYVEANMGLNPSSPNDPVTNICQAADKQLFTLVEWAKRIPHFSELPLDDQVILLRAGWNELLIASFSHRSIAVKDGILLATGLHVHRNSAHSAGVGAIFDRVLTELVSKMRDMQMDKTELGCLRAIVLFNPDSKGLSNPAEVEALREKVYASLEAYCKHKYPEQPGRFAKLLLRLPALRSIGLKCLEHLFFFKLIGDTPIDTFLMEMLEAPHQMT
Text: Suitable reporter gene constructs are well known to skilled workers in the fields of biochemistry and molecular biology. Reporter/receptor pairs used in the assay reported in FIG. 1 are listed in Table I. All transfections additionally contained CMV-βgal as an internal control. Suitable constructs for use in the these studies may conveniently be cloned into pCMV. pCMV contains the cytomegalovirus promoter/enhancer followed by a bacteriophage T7 promoter for transcription in vitro. Other vectors known in the art can be used in the methods of the present invention.
CV-1 cells for the activation assays were grown in Dulbecco's modified Eagle's medium supplemented with 10% resin charcoal-stripped fetal bovine serum, 50 U/ml penicillin G and 50 μg/ml streptomycin sulfate (DMEM-FBS) at 37° C. in 5% CO2. One day prior to transfection, cells were plated to 50-80% confluence using phenol red free DMEM-FBS.
The cells were transiently transfected by lipofection. Reporter constructs (300 ng/10^5 cells) and cytomegalovirus-driven expression vectors (20-50 ng/10^5 cells) were added, with CMV-β-gal (500 ng/10^5 cells) as an internal control. After 2 hours, the liposomes were removed and the cells were treated for approximately 45 hours with phenol red free DMEM-FBS containing the test bile acid and other compounds.
Any compound which is a candidate for activation of FXR may be tested by this method. […] After exposure to ligand, the cells were harvested and assayed for β-galactosidase activity (control) and activity of the specific reporter gene.
Activity of the reporter gene can be conveniently normalized to the internal control and the data plotted as fold activation relative to untreated cells.
(§1) A variety of commercially available bile acids (Sigma) were tested for their ability to activate known FXR-RXR (FIG. 9; left panel) and FXR-RXRm (FIG. 9, right panel).
(§2) CV-1 cells were grown in Dulbecco's Modified Eagle's medium supplemented with 10% resin-charcoal stripped fetal bovine serum, 50 U/ml penicillin G and 50 μg/ml streptomycin sulfate (DMEM-FBS) at 37° C. in 5% CO2. One day prior to transfection, cells were plated to 50-80% confluence using phenol-red free DMEM-FBS.

FXR = biological target: T2, FXR (Rattus norvegicus, UniProt Q62735); experiment: Transient transfection assay, FXR + RXR with liver bile acid transporter; type: cell-based; settings: for EC50: with the liver bile acid transporter
T2 sequence (Q62735 1-469): T1 sequence (Q62735 1-469)
T2 sequence (P19793 1-462 partner): T1 sequence (P19793 1-462 partner)
Text: The liver and ileum express tissue-specific bile acid transport proteins for efficient uptake of these compounds. […] CV-1 cells therefore were co-transfected with a human liver bile acid transporter (accession L21893). Use of this transporter allows hydrophilic bile acid or bile acid-derived compounds or compounds, which due to their structural similarity to bile acid are transported by the transporter, to be tested for activation of the intracellular bile acid nuclear receptor. […] Any suitable non-specific transporter may also be used.
After transfection, cells were treated with 100 μM concentrations of the indicated bile acid.
In addition to the structure-activity studies, dose-response analyses were performed for some bile acid nuclear receptor ligands. For these analyses, shown in FIG. 11, CV-1 cells were transfected as above, with the liver bile acid transporter, and treated with the indicated varying concentrations of each bile acid.

RXR (GAL-L-RXR) = biological target: T3, RXR (GAL-L-RXR) (Homo sapiens, UniProt P19793); experiment: GAL4 chimera activation assay in CV-1 cells, UASG×4 reporter, GAL-L-RXR
T3 sequence (P19793 203-462): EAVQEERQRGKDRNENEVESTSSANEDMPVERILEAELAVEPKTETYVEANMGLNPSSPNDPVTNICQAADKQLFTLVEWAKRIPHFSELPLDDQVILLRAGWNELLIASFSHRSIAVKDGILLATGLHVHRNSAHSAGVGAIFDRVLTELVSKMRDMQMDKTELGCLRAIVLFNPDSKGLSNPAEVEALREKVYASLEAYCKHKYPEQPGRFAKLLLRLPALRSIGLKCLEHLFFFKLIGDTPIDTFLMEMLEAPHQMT
Text: CV-1 cells were transiently transfected with a UASG×4 reporter and expression vectors for β-galactosidase and either GAL-L-RXR or the GAL-L-RXRm LBD mutant.
Confirmation of the analytical procedure was achieved by testing FXR-RXR and FXR-RXRm dimers for activation by RXR and FXR ligands. […] This type of assay therefore can specifically discriminate between activation by RXR ligands and FXR ligands.

FXR-RXR heterodimers [3] = biological target: T4, FXR-RXR heterodimers (Rattus norvegicus, UniProt Q62735); experiment: In vitro coactivator recruitment assay (mobility shift), FXR + RXR, GST-GRIP1; type: biochemical
T4 sequence (Q62735 1-469): T1 sequence (Q62735 1-469)
T4 sequence (P19793 1-462 partner): T1 sequence (P19793 1-462 partner)
T4 sequence (Q61026 625-765 partner limits assumed): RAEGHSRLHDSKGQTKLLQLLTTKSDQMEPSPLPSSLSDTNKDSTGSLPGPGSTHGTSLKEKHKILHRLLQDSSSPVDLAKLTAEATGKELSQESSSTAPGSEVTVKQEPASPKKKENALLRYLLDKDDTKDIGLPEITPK
Method: In vitro coactivator recruitment assays were performed by adding the ligand to a mixture of the following components: FXR, 9-cis retinoic acid receptor, a coactivator, and a labeled FXR response element (probe). […] GRIP1 was expressed in bacteria and purified for these assays. The GST-GRIP1 construct, containing the three receptor interaction domains of mouse GRIP1 (Arg 625-Lys 765, accession U39060) fused to glutathione-S-transferase, was created for bacterial expression of the GRIP1 coactivator.
After addition of the putative ligand to the mixture of components describe above and mixing, the mixture is incubated under conditions.
GST-GRIP1 was expressed in E. coli and purified on glutathione-sepharose columns. […] Complexes were electrophoresed through a 5% polyacrylamide gel in 0.5×TBE (45 mM Tris base, 45 mM boric acid, 1 mM EDTA) at room temperature. Electrophoretic mobility indicated recruitment of coactivator.

FXR + RXRm = biological target: T5, FXR + RXRm (Rattus norvegicus, UniProt Q62735); experiment: In vitro coactivator recruitment assay (mobility shift), FXR + RXRm, GST-GRIP1; type: biochemical
T5 sequence (Q62735 1-469): T1 sequence (Q62735 1-469)
T5 sequence (Q61026 625-765 partner): T4 sequence (Q61026 625-765 partner limits assumed)
Method: In vitro coactivator recruitment assays were performed by adding the ligand to a mixture of the following components: FXR, 9-cis retinoic acid receptor, a coactivator, and a labeled FXR response element (probe). A polyamino acid containing the receptor interaction domains of co-activator GRIP1 may be used as the coactivator, however any functional coactivator or coactivator complex is contemplated for use in this assay. GRIP1 was expressed in bacteria and purified for these assays. The GST-GRIP1 construct, containing the three receptor interaction domains of mouse GRIP1 (Arg 625-Lys 765, accession U39060) fused to glutathione-S-transferase, was created for bacterial expression of the GRIP1 coactivator. […] Response elements suitable for use in this assay may be any nucleic acid probe which is substantially homologous to the target DNA sequence of the bile acid nuclear receptor.
After addition of the putative ligand to the mixture of components describe above and mixing, the mixture is incubated under conditions. […] Techniques such as, for example, thin layer chromatography, high pressure liquid chromatography, size exclusion chromatography, sedimentation, immunoseparation techniques, or any other convenient method known in the art may be used.
To distinguish between binding through the FXR and RXR subunits, the coactivator recruitment assays were repeated substituting RXRm for RXR. […]

[4] = tested on: RXRα; PPARα, γ and δ; VDR; T3Rβ; RAR; PXR; LXRα and CARβ; experiment: Activation of other receptors by CDCA (data not shown)
FXR-RXRm = biological target: T6, FXR-RXRm (Rattus norvegicus, UniProt Q62735); experiment: Transient transfection activation assay in CV-1 cells, FXR + RXRm; type: cell-based; settings: 100 nM
T6 sequence (Q62735 1-469): T1 sequence (Q62735 1-469)
Method: as §1, §2

[5] = bile acids 100 μM, no bile acid transporter

In the case of c1ccc(-c2cn(C(c3ccccc3)(c3ccccc3)c3ccccc3)cn2)cc1 [Compound B], the “antagonism of CDCA activation of FXR” value [1] is reported as “displayed antagonist properties; also recorded: demonstrate inhibition of FXR activation”.
With C[C@H](CCC(=O)O)[C@H]1CC[C@H]2[C@@H]3C[C@@H](O)[C@@H]4C[C@H](O)CC[C@]4(C)[C@H]3CC[C@]12C [murocholic acid] the “activity as FXR activator” value (FXR-RXR heterodimers [2]; [5]) was “inactive”.
With C[C@H](CCC(=O)O)[C@H]1CC[C@H]2[C@@H]3CC[C@@H]4C[C@H](O)CC[C@]4(C)[C@H]3C[C@H](O)[C@]12C [DCA, deoxycholic acid] the EC50 (FXR) was roughly 50 µM.
In the case of C[C@H](CCC(=O)O)[C@H]1CC[C@H]2[C@@H]3[C@H](O)[C@@H](O)[C@@H]4C[C@H](O)CC[C@]4(C)[C@H]3CC[C@]12C [α-muricholic acid], the “activity as FXR activator” value (FXR-RXR heterodimers [2]; [5]) is reported as “inactive”.
With C[C@H](CCC(=O)O)[C@H]1CC[C@H]2[C@@H]3[C@H](O)C[C@@H]4C[C@H](O)CC[C@]4(C)[C@H]3CC[C@]12C (single isomer, unassigned) [peak Z, chenodeoxycholic acid] the “effect on RXR” value (RXR (GAL-L-RXR); HPLC fractions, 25 μg/ml) was “no effect”.
C[C@H](CCC(=O)O)[C@H]1CC[C@H]2[C@@H]3[C@H](O)C[C@@H]4C[C@H](O)CC[C@]4(C)[C@H]3C[C@H](O)[C@]12C [CA, cholic acid] was tested, and the “activity as FXR activator” value (FXR-RXR heterodimers [2]; [5]) was “inactive”, the “activation of FXR” value (FXR; 100 μM, coexpression of the liver bile acid transporter) was 170 fold and the “coactivator recruitment by FXR-RXR” value (FXR-RXR heterodimers [3]) was “less effective”.
Clc1ccccc1C(c1ccccc1)(c1ccccc1)n1ccnc1 [clotrimazole] was tested, and the “antagonism of CDCA activation of FXR” value [1] was “strongest effect; also recorded: strongly active”.
With C[C@H](CCC(=O)O)[C@H]1CC[C@H]2[C@@H]3[C@H](O)[C@H](O)[C@@H]4C[C@H](O)CC[C@]4(C)[C@H]3CC[C@]12C [hyocholic] the “activity as FXR activator” value (FXR-RXR heterodimers [2]; [5]) was “inactive”.
CC(=O)N1CCN(c2ccc(OCC3COC(Cn4ccnc4)(c4ccc(Cl)cc4Cl)O3)cc2)CC1 (stereo not shown) [ketonazole] was tested, and the “antagonism of CDCA activation of FXR” value [1] was “inactive”.
C[C@H](CCC(=O)O)[C@H]1CC[C@H]2[C@@H]3C(=O)C[C@@H]4C[C@H](O)CC[C@]4(C)[C@H]3CC[C@]12C [7-ketolithocholic acid, 5β-cholanic acid-3α-ol-7-one] was tested, and the “activity as FXR activator” value (FXR-RXR heterodimers [2]; [5]) was “activity intermediate between CDCA and UDCA”.
In the case of C[C@H](CCC(=O)NCC(=O)O)[C@H]1CC[C@H]2[C@@H]3CC[C@@H]4C[C@H](O)CC[C@]4(C)[C@H]3CC[C@]12C [glyco-LCA], the “coactivator recruitment by FXR-RXRm” value (FXR + RXRm) is reported as “recruited coactivator”.
In the case of COC(=O)/C=C(\C)CC/C=C(\C)CC[C@H]1OC1(C)C [JH III, juvenile hormone III], the “activity as FXR activator” value (FXR-RXR heterodimers [2]; 50 μM) is reported as “far weaker activity relative to the most efficacious bile acids”.
For FC(F)(F)c1cccc(C(c2ccccc2)(c2ccccc2)n2ccnc2)c1 [Compound A], the “antagonism of CDCA activation of FXR” value [1] was “displayed antagonist properties; also recorded: significant but weak activity”.
With C[C@H](CCC(=O)O)[C@H]1CC[C@H]2[C@@H]3[C@H](O)C[C@@H]4C[C@H](O)CC[C@]4(C)[C@H]3CC[C@]12C [CDCA, chenodeoxycholic acid] the “activation of other receptors” value [4] was “failed to activate” and the “activation of GAL-L-RXR chimera” value (RXR (GAL-L-RXR)) was “did not activate”.
C[C@H](CCC(=O)O)[C@H]1CC[C@H]2[C@@H]3CC[C@@H]4C[C@H](O)CC[C@]4(C)[C@H]3CC[C@]12C [LCA, lithocholic acid] showed an EC50 (FXR) of roughly 50 µM.
Cc1cc2c(cc1C1(c3ccc(C(=O)O)cn3)CC1)C(C)(C)CCC2(C)C [LG268] was tested, and the “response of FXR-RXRm” value (FXR-RXRm) was “little or no response”.
